Where a SMILES comes first, the peptide text is derived from it.
Columns and labels:
human erythrocytes = assay type: cell-based
Procedure: In hemolysis assays, the ability of peptides at 128 μg/ml concentration to lyse human erythrocytes to release hemoglobin was measured. The peptides described here preferably have low hemolytic activity (0.2 to 3.8% hemolysis) in mammal body. […] These peptides are useful as antimicrobial drugs as they show little or no side effects at concentrations needed to kill bacteria.
Minimum inhibition concentrations (MICs) were tested by microbroth dilution method and Chain 104, 105 and 109 inhibited the growth of Escherichia coli (ATCC 25922), Staphylococcus aureus (ATCC 25923), Klebsiella pneumoniae (ATCC 10031) and Pseudomonas aeruginosa (ATCC 27853) between 1-8 μg/ml respectively (Tables 3a, 3b and 3c). The membranolytic activities of the peptides were tested by measuring the release of hemoglobin from erythrocytes of fresh blood donated by voluntiers. Hemoglobin levels were determined spectrometrically by taking OD at 540 nm by following the protocol of Schmidtchen et al., 2011.

[1] = +4, 25, 37 and 45° C., 14 days, PBS pH 7.4, RDA with 20 μg
Procedure: (§3) Thermal stability was evaluated by diluting peptides to the concentration of 2 mg/ml in PBS buffer (pH 7.4) and incubating at different temperatures, such as +4° C., 25° C. (RT), 37° C. and 45° C., peptides stored at −20° C. were used as control. […] Peptides were also tested by diluting them at different pH values starting from pH 4 to 9. The effect of NaCl on the antimicrobial activity was tested by adding different concentrations (50, 100 and 200 mM) of NaCl to MH medium and the minimum inhibitory concentrations were tested against 4 ATCC bacterial strains.

[2] = pH 4-9, RDA
Procedure: as §3

[3] = system: gram positive and negative bacteria; experiment: MIC by micro broth dilution, summary over the strains tested; assay type: cell-based
Procedure: (§1) Minimum inhibition concentrations (MICs) were determined against Escherichia coli (ATCC 25922), Staphylococcus aureus (ATCC 25923), Klebsiella pneumoniae (ATCC 10031) and Pseudomonas aeruginosa (ATCC 27853). Also clinical strains of E. coli, K. pneumoniae, E. cloacae, P. aeruginosa, Serratia marcescens, Proteus mirabilis, S. pneumoniae, Acinetobacter baumannii, A. johnsonii and S. aureus were used for MICs assays. Additionally, clinical strains of yeast including Candida albicans, C. glabrata, C. parapsilosis and C. quillermondiae were used. The susceptibility of these microorganisms to Chain peptides were determined using micro broth dilution assay. Colonies of the respective microorganism from Muller Hinton (MH) agar plates incubated overnight were suspended in MH broth media and final concentration of microorganism was adjusted to 5.0×10^5 cfu/ml. An aliquot of 10 μl of each Chain peptide, or gentamicin, tetracycline as reference antibiotics were added in differing concentrations along with 90 μl of bacterial suspension to 96 well polypropylene plates and incubated at 37° C. for 20 to 24 hours. Concentrations of Chain peptides and reference antibiotics ranged from 0.125 to 128 μg/ml and the MICs were recorded as the lowest concentration with no visual growth of bacteria. Similarly, antifungal MICs were tested in Potato dextrose broth.

S. aureus COL (MRSA) = experiment: Synergistic activity with Ertapenem (4 μg/ml) against MRSA, MIC; assay type: cell-based, Staphylococcus aureus; conditions: S. aureus COL, together with 4 μg/ml Ertapenem (synergistic activity)
Procedure: as §1
(§2) Peptides Chain 104, Chain 105, Chain 201, Chain 308, Chain 310 were tested against antibiotic-sensitive strains of S. aureus RN4220 and methicillin resistant strains of S. aureus COL (MRSA). Chain peptides comprising of either L- or D-form amino acids were tested against these bacteria, and the D-form peptides were found have better activity compared to L-form (Table 6). Synergistic activity of chain peptides along with Ertapenem (4 μg/ml) was tested to know whether it will influence the activity against MRSA strains. […] Chain 310 has the best antibacterial activity against the MRSA strains with a MIC of 0.06 & 0.03 μg/ml along with Ertapenem (4 μg/ml) for both forms of L and D-peptides (Table 6).

S. aureus RN4220 = assay type: cell-based, Staphylococcus aureus; conditions: antibiotic sensitive strain S. aureus RN4220
Procedure: as §1, §2

| SMILES | side effects to humans as tested by hemolysis assay (human erythrocytes) | thermostability (antibacterial activity kept after incubation) [1] | pH stability (zone of inhibition) [2] | activity against the four ATCC strains [3] | further results |
| --- | --- | --- | --- | --- | --- |
| CC[C@H](C)[C@H](NC(=O)[C@H](CCSC)NC(=O)[C@H](C)NC(=O)[C@H](CCCNC(=N)N)NC(=O)[C@H](Cc1c[nH]c2ccccc12)NC(=O)[C@H](CCCCN)NC(=O)[C@@H](N)CCCNC(=N)N)C(=O)N[C@@H](CCCNC(=N)N)C(=O)N[C@@H](CC(C)C)C(=O)N[C@@H](Cc1c[nH]cn1)C(=O)N[C@@H](C)C(=O)N[C@@H](CCCCN)C(=O)N[C@@H](CCCNC(=N)N)C(=O)N[C@@H](CC(C)C)C(=O)N[C@@H](CCCNC(=N)N)C(=O)N[C@@H](CCCCN)C(=O)O [Chain104] (H-RKWRAMIRLHAKRLRK-OH) | little side effects | not hindered by pH or temperature even upto 45 °C for over 14 days | not hindered by pH |  |  |
| CC[C@H](C)[C@H](NC(=O)[C@H](CCSC)NC(=O)[C@H](C)NC(=O)[C@H](CCCNC(=N)N)NC(=O)[C@H](Cc1c[nH]c2ccccc12)NC(=O)[C@H](CCCCN)NC(=O)[C@@H](N)CCCNC(=N)N)C(=O)N[C@@H](CCCNC(=N)N)C(=O)N[C@@H](CC(C)C)C(=O)N[C@@H](Cc1c[nH]cn1)C(=O)N[C@@H](C)C(=O)N[C@@H](CCCCN)C(=O)N[C@@H](Cc1c[nH]c2ccccc12)C(=O)N[C@@H](CC(C)C)C(=O)N[C@@H](CCCNC(=N)N)C(=O)N[C@@H](CCCCN)C(=O)O [Chain105] (H-RKWRAMIRLHAKWLRK-OH) | little side effects | not hindered by pH or temperature even upto 45 °C for over 14 days | not hindered by pH |  |  |
| CC(C)C[C@H](NC(=O)[C@H](CCCCN)NC(=O)[C@H](Cc1c[nH]c2ccccc12)NC(=O)[C@H](CCCCN)NC(=O)[C@H](C)NC(=O)[C@H](Cc1c[nH]cn1)NC(=O)[C@H](CC(C)C)NC(=O)[C@H](CCCNC(=N)N)NC(=O)[C@H](Cc1c[nH]c2ccccc12)NC(=O)[C@@H](N)Cc1c[nH]c2ccccc12)C(=O)N[C@@H](Cc1c[nH]c2ccccc12)C(=O)O [Chain109] (H-WWRLHAKWKLW-OH) | little side effects |  |  |  |  |
| CC[C@H](C)[C@H](NC(=O)[C@H](Cc1c[nH]c2ccccc12)NC(=O)[C@@H](N)CCCCN)C(=O)N[C@H](C(=O)N[C@@H](Cc1c[nH]c2ccccc12)C(=O)N[C@@H](CCCNC(=N)N)C(=O)N[C@@H](Cc1c[nH]c2ccccc12)C(=O)N[C@@H](CCCNC(=N)N)C(=O)N[C@@H](Cc1ccccc1)C(=O)N[C@@H](CCCCN)C(=O)N[C@@H](CCCNC(=N)N)C(=O)O)C(C)C [Chain201] (H-KWIVWRWRFKR-OH) | little side effects | not hindered by pH or temperature even upto 45 °C for over 14 days | not hindered by pH |  |  |
| CC[C@H](C)[C@H](NC(=O)[C@H](CC(C)C)NC(=O)[C@H](CCCNC(=N)N)NC(=O)[C@@H](N)CCCNC(=N)N)C(=O)N[C@@H](Cc1c[nH]c2ccccc12)C(=O)N[C@@H](CCCNC(=N)N)C(=O)N[C@@H](CCCNC(=N)N)C(=O)N[C@@H](Cc1ccccc1)C(=O)N[C@@H](CCCCN)C(=O)N[C@@H](Cc1c[nH]c2ccccc12)C(=O)N[C@@H](CC(C)C)C(=O)N[C@@H](CCCNC(=N)N)C(=O)O [Chain204] (H-RRLIWRRFKWLR-OH) | little side effects | not hindered by pH or temperature even upto 45 °C for over 14 days | not hindered by pH |  |  |
| CC[C@H](C)[C@H](N)C(=O)N[C@@H](Cc1c[nH]c2ccccc12)C(=O)N[C@@H](CCCCN)C(=O)N[C@@H](CCCNC(=N)N)C(=O)N[C@@H](Cc1ccccc1)C(=O)N[C@@H](CCCNC(=N)N)C(=O)N[C@@H](CC(C)C)C(=O)N[C@@H](Cc1ccccc1)C(=O)N[C@@H](CCCCN)C(=O)N[C@@H](CCCCN)C(=O)N[C@@H](Cc1c[nH]c2ccccc12)C(=O)O [Chain304] (H-IWKRFRLFKKW-OH; N-terminus and C-terminus assumed) |  |  |  | very active |  |
| CC(C)C[C@H](NC(=O)[C@H](Cc1c[nH]c2ccccc12)NC(=O)[C@H](Cc1ccccc1)NC(=O)[C@H](Cc1c[nH]c2ccccc12)NC(=O)[C@H](CCCCN)NC(=O)[C@H](CCCNC(=N)N)NC(=O)[C@@H](N)Cc1c[nH]c2ccccc12)C(=O)N[C@@H](Cc1ccccc1)C(=O)N[C@@H](CCCCN)C(=O)N[C@@H](CCCCN)C(=O)N[C@@H](CCCNC(=N)N)C(=O)O [Chain309] (H-WRKWFWLFKKR-OH; N-terminus and C-terminus assumed) |  |  |  | very active |  |
| CC(C)C[C@H](NC(=O)[C@H](Cc1c[nH]c2ccccc12)NC(=O)[C@H](Cc1ccccc1)NC(=O)[C@H](Cc1c[nH]c2ccccc12)NC(=O)[C@H](CCCCN)NC(=O)[C@H](CC(C)C)NC(=O)[C@@H](N)CCCCN)C(=O)N[C@@H](Cc1ccccc1)C(=O)N[C@@H](CCCCN)C(=O)N[C@@H](CCCCN)C(=O)N[C@@H](CCCNC(=N)N)C(=O)O [Chain311] (H-KLKWFWLFKKR-OH; N-terminus and C-terminus assumed) |  |  |  | very active |  |
| CC(C)C[C@H](NC(=O)[C@H](CCCCN)NC(=O)[C@H](CCCCN)NC(=O)[C@H](Cc1ccccc1)NC(=O)[C@H](CC(C)C)NC(=O)[C@H](Cc1c[nH]c2ccccc12)NC(=O)[C@H](CCCNC(=N)N)NC(=O)[C@H](Cc1c[nH]c2ccccc12)NC(=O)[C@H](CCCCN)NC(=O)[C@H](CCCNC(=N)N)NC(=O)[C@@H](N)CCCCN)C(=O)O [Compound 310] (H-KRKWRWLFKKL-OH) |  |  |  |  | Minimum inhibitory concentration (MIC), S. aureus COL + 4 μg/ml Ertapenem (S. aureus COL (MRSA)): 0.06 mg/L; Minimum inhibitory concentration (MIC), S. aureus RN4220 (S. aureus RN4220): >64 mg/L |

Reference: patent US11096985B2, “Antimicrobial peptides, their variants and uses” (priority 2015, dated 2021)
